One assay deals with soluble uPAR (Homo sapiens, UniProt Q03405). The assay is classed as binding. The arrangement: sUPAR, soluble truncated form of the urokinase receptor; made in house; host or cells: baculovirus-infected Sf9 insect cells. The following applies: for % Inhibition 2.5 uM: 2500.0; for % Inhibition 5 uM: 5000.0. The method, then:
Streptavidin, 100 μl (0.1 mg/ml) in 50 mM Na2CO3, pH 9.6, was added to MaxiSorp wells (Nunc), incubated overnight at 4 C, and then washed with PBS/BSA. Biotinylated sUPAR (25 nM in PBS/BSA) was added to the wells and incubated for 2 hours at room temperature prior to washing. Competitive peptide inhibitors were added to the wells immediately prior to addition of the bacteriophage. The wells were incubated for one hour at room temperature, then washed and bound bacteriophage eluted with 6M urea in 0.1N HCl, pH 2.5. After 15 minutes, the urea eluate was brought to neutral pH by addition of 2M Tris base and the bacteriophage titers of input stocks and elutions measured by plaque formation assay. Results were expressed as the percent of input bacteriophage which bind to the wells. Alternatively, the amount of bacteriophage was determined in an ELISA where phage were preincubated with HRP-conjugated anti-M13 antibody for 30 minutes at room temperature before dispensing into wells prepared as above and incubated for one hour at room temperature. The final anti-M13 conjugate dilution was 1:4000. After washing, TMB substrate (100 μl/well) was added and color development was stopped with 0.8N H2SO4 (100 μl/well). The absorbance at 450 nm was then measured in a 96 well plate reader.
In a uPAR binding assay, the following analogs were tested in a competition with phage displaying either peptide 25 or peptide 9. The analogs comprise both natural and unnatural amino acids.
The analogs were tested in an assay utilizing soluble uPAR, similar to the method described in Example 2. The analogs were tested for their ability to compete with phage displaying either peptide 9 or peptide 25. Analogs 3–61 were tested in competition with peptide 25. Analogs 62–96 were tested in competition with peptide 9. Approximately 10^8 plaque forming units of the phage were used in the assay.
The analogs were tested at a concentration at 40 μM in the uPAR competition assay with phage displaying peptide 25. The results below show which analogs were active.
Analogs 31–61 were tested for their ability to compete with phage displaying peptide 25. The active analogs were tested further at two concentrations, 5 μM and 2.5 μM. These concentrations were calculated based on the synthesis reactions. However, the sequences * were further tested and determined to contain high amounts of amino acids and the quantity tested could have been higher than 5 μM or 2.5 μM.

In assay [1] the target is T1, uPA1–48:uPAR complexes binding to vitronectin (Homo sapiens, UniProt Q03405).
T1 construct: sUPAR, soluble truncated form of the urokinase receptor; made in house; host or cells: suPAR: baculovirus-infected Sf9 cells; uPA1-48: recombinant yeast; vitronectin: purified from human plasma
As to the kind of experiment: Vitronectin binding assay (ELISA). The following applies: 20 nM biotinylated suPAR, 20 nM uPA1–48. As to the method:
Vitronectin was purified from human plasma by the method of Yatohgo et al, Cello Struct.and Funct. 13: 281–292 (1988). Purified vitronectin was diluted to 20 μg/ml in PBS containing 1 mM CaCl2 and 0.5 mM MgCl2, dispensed at 50 μl/well into Immulon II wells (Dynatech, Chantilly, Va.), incubated overnight at 4° C. and washed with PBS/BSA. Biotinylated sUPAR was diluted to 20 nM in PBS/BSA, incubated with or without test ligand for 30 minutes at room temperature (22° C.), dispensed at 100 μl/well and incubated for 90 minutes. Wells were then washed and horseradish peroxidase (HRP)-conjugated streptavidin was added at 0.4 μg/ml in PBS/2% BSA for 1 hour followed by washing and addition of 100 μl/well TMB substrate. The color development was stopped with 100 μl of 0.8N H2SO4 and the absorbance at 450 nm measured in a 96 well plate reader (Dynatech, Chantilly, Va.). Antagonistic effects of test ligands were measured as described above except the ligands were incubated with 20 nM biotinylated suPAR in the presence of 20 nM uPA1–48.
In order to analyze the effects of the various peptide ligands on the uPAR:vitronectin interaction, we developed an in vitro ELISA based assay for this interaction, in which biotinylated suPAR and uPA1–48 bind to immobilized, urea purified vitronectin, and the bound sUPAR is detected with HRP conjugated streptavidin. Under the conditions of the assay binding of biotinylated uPAR to vitronectin is strictly dependent on uPA1–48, as shown in FIG. 1.
In general terms: In an ELISA, binding on a coated surface is turned into a signal by an enzyme label.

Marks after values point to notes of the source that are not given here. Square brackets hold non-standard residues; d marks the D form. Peptide text beside a SMILES is read from it. 1Nal = N[C@@H](Cc1cccc2ccccc12)C(=O)O; 2Nal = N[C@@H](Cc1ccc2ccccc2c1)C(=O)O; Nle = CCCC[C@H](N)C(=O)O; Abu = CC[C@H](N)C(=O)O

Sequence of soluble uPAR (Q03405 23-305 limits assumed): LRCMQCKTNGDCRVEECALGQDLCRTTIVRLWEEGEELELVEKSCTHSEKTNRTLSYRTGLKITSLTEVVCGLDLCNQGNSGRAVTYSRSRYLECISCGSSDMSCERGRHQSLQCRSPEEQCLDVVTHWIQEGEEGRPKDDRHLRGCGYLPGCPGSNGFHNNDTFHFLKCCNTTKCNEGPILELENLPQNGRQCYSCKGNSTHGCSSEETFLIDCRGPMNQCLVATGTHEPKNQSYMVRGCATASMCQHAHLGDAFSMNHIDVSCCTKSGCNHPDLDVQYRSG
T1 sequence (Q03405 23-305 limits assumed, one chain of several): as the sequence (Q03405 23-305 limits assumed) above

For `CSCC[C@H](NC(=O)[C@H](Cc1ccc(O)cc1)NC(=O)CNC(=O)[C@H](CC(C)C)NC(=O)[C@H](CO)NC(=O)[C@H](CC(C)C)NC(=O)[C@H](Cc1c[nH]cn1)NC(=O)[C@H](Cc1c[nH]cn1)NC(=O)[C@H](Cc1cccc2ccccc12)NC(=O)[C@@H](NC(=O)[C@H](CO)NC(=O)[C@H](CCC(=O)O)NC(=O)[C@H](C)N)[C@@H](C)O)C(=O)N[C@@H](Cc1ccc(O)cc1)C(=O)N[C@H](C(=O)N[C@@H](CC(C)C)C(=O)N[C@@H](CC(N)=O)C(N)=O)[C@@H](C)O` [Analog 35, AESTXHHLSLGYMYTLN] (H-AEST[1Nal]HHLSLGYMYTLN-NH2), at soluble uPAR, the “% Inhibition 2.5 uM” value was found to be 70% and the “% Inhibition 5 uM” value was 94%. On the same counts, the results for `CSCC[C@H](NC(=O)[C@H](Cc1ccc(O)cc1)NC(=O)CNC(=O)[C@H](CC(C)C)NC(=O)[C@H](CO)NC(=O)[C@H](CC(C)C)NC(=O)[C@H](Cc1c[nH]cn1)NC(=O)[C@H](Cc1c[nH]cn1)NC(=O)[C@H](Cc1ccc2ccccc2c1)NC(=O)[C@@H](NC(=O)[C@H](CO)NC(=O)[C@H](CCC(=O)O)NC(=O)[C@H](C)N)[C@@H](C)O)C(=O)N[C@@H](Cc1ccc(O)cc1)C(=O)N[C@H](C(=O)N[C@@H](CC(C)C)C(=O)N[C@@H](CC(N)=O)C(N)=O)[C@@H](C)O` [Analog 36] (H-AEST[2Nal]HHLSLGYMYTLN-NH2) are 61% and 78%. `CCCC[C@H](NC(=O)[C@H](Cc1ccc(O)cc1)NC(=O)CNC(=O)[C@H](CC(C)C)NC(=O)[C@H](CO)NC(=O)[C@H](CC(C)C)NC(=O)[C@H](Cc1c[nH]cn1)NC(=O)[C@H](Cc1c[nH]cn1)NC(=O)[C@H](Cc1ccc(O)cc1)NC(=O)[C@@H](NC(=O)[C@H](CO)NC(=O)[C@H](CCC(=O)O)NC(=O)[C@H](C)N)[C@@H](C)O)C(=O)N[C@@H](Cc1ccc(O)cc1)C(=O)N[C@H](C(=O)N[C@@H](CC(C)C)C(=O)N[C@@H](CC(N)=O)C(N)=O)[C@@H](C)O` [Analog 44, AESTYHHLSLGYJYTLN] (H-AESTYHHLSLGY[Nle]YTLN-NH2): on soluble uPAR, the “% Inhibition 2.5 uM” value was 84* % and the “% Inhibition 5 uM” value worked out at 91%. For `CC[C@H](NC(=O)[C@H](Cc1ccc(O)cc1)NC(=O)CNC(=O)[C@H](CC(C)C)NC(=O)[C@H](CO)NC(=O)[C@H](CC(C)C)NC(=O)[C@H](Cc1c[nH]cn1)NC(=O)[C@H](Cc1c[nH]cn1)NC(=O)[C@H](Cc1ccc(O)cc1)NC(=O)[C@@H](NC(=O)[C@H](CO)NC(=O)[C@H](CCC(=O)O)NC(=O)[C@H](C)N)[C@@H](C)O)C(=O)N[C@@H](Cc1ccc(O)cc1)C(=O)N[C@H](C(=O)N[C@@H](CC(C)C)C(=O)N[C@@H](CC(N)=O)C(N)=O)[C@@H](C)O` [Analog 45] (H-AESTYHHLSLGY[Abu]YTLN-NH2), at soluble uPAR, the “% Inhibition 2.5 uM” value worked out at 31% and the “% Inhibition 5 uM” value worked out at 59%.

As to `CSCC[C@H](NC(=O)[C@H](Cc1ccc(O)cc1)NC(=O)CNC(=O)[C@H](CC(C)C)NC(=O)[C@H](CO)NC(=O)[C@H](CC(C)C)NC(=O)[C@H](Cc1c[nH]cn1)NC(=O)[C@H](Cc1c[nH]cn1)NC(=O)[C@H](Cc1ccc(O)cc1)NC(=O)[C@@H](NC(=O)[C@H](CO)NC(=O)[C@H](CCC(=O)O)NC(=O)[C@@H](C)N)[C@@H](C)O)C(=O)N[C@@H](Cc1ccc(O)cc1)C(=O)N[C@H](C(=O)N[C@@H](CC(C)C)C(=O)N[C@@H](CC(N)=O)C(N)=O)[C@@H](C)O` [Analog 46] (H-[dA]ESTYHHLSLGYMYTLN-NH2), on soluble uPAR, the “% Inhibition 2.5 uM” value is listed as 41% and the “% Inhibition 5 uM” value is recorded as 57%. Taken in the same sequence, the figures for `CSCC[C@H](NC(=O)[C@H](Cc1ccc(O)cc1)NC(=O)CNC(=O)[C@H](CC(C)C)NC(=O)[C@H](CO)NC(=O)[C@H](CC(C)C)NC(=O)[C@H](Cc1c[nH]cn1)NC(=O)[C@H](Cc1c[nH]cn1)NC(=O)[C@H](Cc1ccc(O)cc1)NC(=O)[C@@H](NC(=O)[C@H](CO)NC(=O)[C@@H](CCC(=O)O)NC(=O)[C@H](C)N)[C@@H](C)O)C(=O)N[C@@H](Cc1ccc(O)cc1)C(=O)N[C@H](C(=O)N[C@@H](CC(C)C)C(=O)N[C@@H](CC(N)=O)C(N)=O)[C@@H](C)O` [Analog 47] (H-A[dE]STYHHLSLGYMYTLN-NH2) were 35% and 61%. Taken in the same sequence, the figures for `CSCC[C@H](NC(=O)[C@H](Cc1ccc(O)cc1)NC(=O)CNC(=O)[C@H](CC(C)C)NC(=O)[C@@H](CO)NC(=O)[C@H](CC(C)C)NC(=O)[C@H](Cc1c[nH]cn1)NC(=O)[C@H](Cc1c[nH]cn1)NC(=O)[C@H](Cc1ccc(O)cc1)NC(=O)[C@@H](NC(=O)[C@H](CO)NC(=O)[C@H](CCC(=O)O)NC(=O)[C@H](C)N)[C@@H](C)O)C(=O)N[C@@H](Cc1ccc(O)cc1)C(=O)N[C@H](C(=O)N[C@@H](CC(C)C)C(=O)N[C@@H](CC(N)=O)C(N)=O)[C@@H](C)O` [Analog 54] (H-AESTYHHL[dS]LGYMYTLN-NH2) were 73% and 86%.

`CSCC[C@H](NC(=O)[C@H](Cc1ccc(O)cc1)NC(=O)CNC(=O)[C@@H](CC(C)C)NC(=O)[C@H](CO)NC(=O)[C@H](CC(C)C)NC(=O)[C@H](Cc1c[nH]cn1)NC(=O)[C@H](Cc1c[nH]cn1)NC(=O)[C@H](Cc1ccc(O)cc1)NC(=O)[C@@H](NC(=O)[C@H](CO)NC(=O)[C@H](CCC(=O)O)NC(=O)[C@H](C)N)[C@@H](C)O)C(=O)N[C@@H](Cc1ccc(O)cc1)C(=O)N[C@H](C(=O)N[C@@H](CC(C)C)C(=O)N[C@@H](CC(N)=O)C(N)=O)[C@@H](C)O` [Analog 55] (H-AESTYHHLS[dL]GYMYTLN-NH2): on soluble uPAR, the “% Inhibition 2.5 uM” value is 56% and the “% Inhibition 5 uM” value is 80%. Consider `CSCC[C@H](NC(=O)[C@H](Cc1ccc(O)cc1)NC(=O)CNC(=O)[C@H](CC(C)C)NC(=O)[C@H](CO)NC(=O)[C@H](CC(C)C)NC(=O)[C@H](Cc1c[nH]cn1)NC(=O)[C@H](Cc1c[nH]cn1)NC(=O)[C@H](Cc1ccc(O)cc1)NC(=O)[C@@H](NC(=O)[C@H](CO)NC(=O)[C@H](CCC(=O)O)NC(=O)[C@H](C)N)[C@@H](C)O)C(=O)N[C@@H](Cc1ccc(O)cc1)C(=O)N[C@H](C(=O)N[C@H](CC(C)C)C(=O)N[C@@H](CC(N)=O)C(N)=O)[C@@H](C)O` [Analog 60] (H-AESTYHHLSLGYMYT[dL]N-NH2), for which, on soluble uPAR, the “% Inhibition 2.5 uM” value is on record as 22% and the “% Inhibition 5 uM” value was 75%.

As for `CSCC[C@H](NC(=O)[C@H](Cc1ccc(O)cc1)NC(=O)CNC(=O)[C@H](CC(C)C)NC(=O)[C@H](CO)NC(=O)[C@H](CC(C)C)NC(=O)[C@H](Cc1c[nH]cn1)NC(=O)[C@H](Cc1c[nH]cn1)NC(=O)[C@H](Cc1ccc(O)cc1)NC(=O)[C@@H](NC(=O)[C@H](CO)NC(=O)[C@H](CCC(=O)O)NC(=O)[C@H](C)N)[C@@H](C)O)C(=O)N[C@@H](Cc1ccc(O)cc1)C(=O)N[C@H](C(=O)N[C@@H](CC(C)C)C(=O)N[C@H](CC(N)=O)C(N)=O)[C@@H](C)O` [Analog 61] (H-AESTYHHLSLGYMYTL[dN]-NH2), on soluble uPAR, the “% Inhibition 2.5 uM” value was determined as 32% and the “% Inhibition 5 uM” value came out at 55%. Turning to H-AESTFHHLSLGYMYTLN-NH2 [Analog 34], at soluble uPAR, the “% Inhibition 2.5 uM” value is on record as 38% and the “% Inhibition 5 uM” value stood at 47%. Consider H-AESTYHHLSLGYVYTLN-NH2 [Analog 43], for which, on soluble uPAR, the “% Inhibition 2.5 uM” value amounted to 63% and the “% Inhibition 5 uM” value was determined as 82%. “somatomedin B domain of vitronectin: recombinant somatomedin B domain of vitronectin (DQESCKGRCTEGFNVDKKCQCDELCSYYQSCCTDYTAECKPQVT)”: the “effect on binding of uPA1–48:uPAR complexes to vitronectin” value in assay [1] is “blocked”.
